Values after ≈ are worked out from the molar mass of the structure shown.
Columns and labels:
HL-60 TB = assay: NCI in vitro cytotoxicity, leukemia; format: cell-based; settings: Homo sapiens
[1] = test system: cotton aphid (CA) Aphis gossypii; assay: pesticidal bioassay, cotton aphid (CA); format: in vivo; settings: at 1 ppm
Procedure: Pesticidal bioassays were conducted at Eli Lilly Laboratories (Greenfield, Ind.) following standard procedures with eight indicator organisms: mosquito larvae (ML) Aedes aegypti (in the media), blowfly larvae (BFL) (1% in the diet), corn root worm (CRW) Diabrotics undecimcuntata howardii (in soil), two-spotted spider mite (2SSM) Tetranychus urticae (on foliage), southern army worm (SAW) Spodoptera eridania (on foliage), melon aphid (MA) (5000 ppm on foliage), cotton aphid (CA) Aphis gossypii, (on foliage) and Haemonchus contortus (HC) (a nematode, 0.1% in the media).

H69 = assay: NCI in vitro cytotoxicity, small cell lung cancer; format: cell-based; settings: Homo sapiens
H322 = assay: NCI in vitro cytotoxicity, non-small cell lung cancer; format: cell-based; settings: Homo sapiens
H23 = assay: as above; format: cell-based; settings: Homo sapiens
CCRF-CEM = assay: NCI in vitro cytotoxicity, leukemia; format: cell-based; settings: Homo sapiens
MCF7 = assay: NCI in vitro cytotoxicity, breast cancer; format: cell-based; settings: Homo sapiens
H460 = assay: NCI in vitro cytotoxicity, non-small cell lung cancer; format: cell-based; settings: Homo sapiens
HOLT-4 = assay: NCI in vitro cytotoxicity, leukemia; format: cell-based; settings: Homo sapiens
U251 = assay: NCI in vitro cytotoxicity, CNS cancer; format: cell-based; settings: Homo sapiens, U-251
HOP-62 = assay: NCI in vitro cytotoxicity, non-small cell lung cancer; format: cell-based; settings: Homo sapiens
P388/ADR = assay: NCI in vitro cytotoxicity, leukemia; format: cell-based; settings: Mus musculus
UO-31 = assay: NCI in vitro cytotoxicity, renal cancer; format: cell-based; settings: Homo sapiens
LOVO = assay: NCI in vitro cytotoxicity, colon cancer; format: cell-based; settings: Homo sapiens
K562 = assay: NCI in vitro cytotoxicity, leukemia; format: cell-based; settings: Homo sapiens
SN12-K1 = assay: NCI in vitro cytotoxicity, renal cancer; format: cell-based; settings: Homo sapiens, SN12K1
A-549(ATCC) = assay: NCI in vitro cytotoxicity, non-small cell lung cancer; format: cell-based; settings: Homo sapiens, A549
Description: (§1) Isolated pure compounds were sent to the National Institute of Health, National Cancer Institute, Bethesda, Md., for testing in human cancer cell line panels including leukemia, non-small cell lung cancer, small cell lung cancer, CNS cancer, melanoma, ovarian cancer and renal cancer.
(§2) To test further the selective specificity of antitumor activities, bullatacin was sent to the NIH, NCI at Bethesda, Md., for their human tumor cell line panel tests including leukemia, non-small cell lung cancer, small cell lung cancer, colon cancer, breast cancer, CNS cancer melanoma, ovarian cancer, and renal cancer.

[2] = test system: 9KB (human nasopharyngeal carcinoma); assay: 9KB cytotoxicity; format: cell-based
Procedure: Occasional checks in the potato disc (PD) assay assured us that antitumor activity was present [Ferrigni et al., J. Nat. Prod., 45; 679-686 (1982)]. Cytotoxicity tests were performed at the Purdue Cell Culture Laboratory, Purdue Cancer Center, using standard protocols for 9KB (human nasopharyngeal carcinoma) and 9PS (a chemically-induced murine lymphocytic leukemia) [Suffness et al., Methods In Cancer Research. Vol. 16: 73 (1979), V. T. DeVita, Jr. and H. Busch eds., Academic Press, New York], 9ASK (astrocytoma reversal) [Lgarashi et al., Cell Struct. and Funct., 3: 107 (1978)], A-549 (human lung carcinoma) [Giard et al., J. Nat. Cancer Inst., 51: 1417-1423 (1973)], and HT-29 (human colon adenocarcinoma) [Fogh J. (ed.), Human Tumor Cells, In Vitro, Plenum Press, New York: 115-159 (1975)].
Anticancer activity is a potential use even for the crude extract. The bioassay results for the lethality of brine shrimp (BST), the inhibition of crown gall tumors on potato discs (PD), the reversal in morphology of db-cAMP induced AC glioma cells from that of mature, differentiated astrocytes to that of immature AC glioma cells (mouse brain cells) (9ASK), the dose that inhibits cell growth to one-half that of untreated poorly differentiated human epidermic carcinoma (9KB), the dose that inhibits cell growth to one-half that of a methylcholanthrene-induced lymphoid neoplasm in a DBA/2 mouse (9PS), and the percent displacement in a protein kinase C test for initial extract fractions are shown in Table 1. Obviously, the bioactivity is concentrated in F005.

EKV-X = assay: NCI in vitro cytotoxicity, non-small cell lung cancer; format: cell-based; settings: Homo sapiens, EKVX
TE-671 = assay: NCI in vitro cytotoxicity, CNS cancer; format: cell-based; settings: Homo sapiens
H524 = assay: NCI in vitro cytotoxicity, small cell lung cancer; format: cell-based; settings: Homo sapiens
MALME-3M = assay: NCI in vitro cytotoxicity, melanoma; format: cell-based; settings: Homo sapiens
HT29 = assay: NCI in vitro cytotoxicity, colon cancer; format: cell-based; settings: Homo sapiens, HT-29
LOX = assay: NCI in vitro cytotoxicity, melanoma; format: cell-based; settings: Homo sapiens
Description: as §1, §2

OVCAR-4 = assay: NCI in vitro cytotoxicity, ovarian cancer; format: cell-based; settings: Homo sapiens

## CCCCCCCCCCC(O)C1CCC(C2CCC(C(O)CCCCCCCCCCC(O)CC3=CC(C)OC3=O)O2)O1 (stereo not shown) [Bullatacin]
HL-60 TB
  IC50: < 0.926 ng/mL
[1]
  toxicity to cotton aphids: significantly toxic
H69
  IC50: 2440 ng/mL (≈ 3920 nM)
  IC90: 7520 ng/mL (≈ 12100 nM)
H322
  IC50: < 0.926 ng/mL
  IC90: > 9260 ng/mL
H23
  IC50: 2380 ng/mL (≈ 3820 nM)
  IC90: 9210 ng/mL (≈ 14800 nM)
CCRF-CEM
  IC50: 0.0894 ng/mL (≈ 0.144 nM)
  IC90: 69.4 ng/mL (≈ 111 nM)
MCF7
  IC50: > 92.4 ng/mL
  IC90: > 92.4 ng/mL
H460
  IC50: 0.0287 ng/mL (≈ 0.0461 nM)
  IC90: 0.185 ng/mL (≈ 0.297 nM)
HOLT-4
  IC50: 1410 ng/mL (≈ 2260 nM)
  IC90: 4720 ng/mL (≈ 7580 nM)
U251
  IC50: < 0.00924 ng/mL
  IC90: 0.0437 ng/mL (≈ 0.0702 nM)
HOP-62
  IC50: < 0.926 ng/mL
  IC90: 5130 ng/mL (≈ 8240 nM)
P388/ADR
  IC50: < 0.926 ng/mL
  IC90: 2560 ng/mL (≈ 4110 nM)
UO-31
  IC50: 1940 ng/mL (≈ 3110 nM)
  IC90: > 9260 ng/mL
LOVO
  IC50: 0.915 ng/mL (≈ 1.47 nM)
  IC90: 4690 ng/mL (≈ 7530 nM)
K562
  IC50: < 0.926 ng/mL
  IC90: 4500 ng/mL (≈ 7220 nM)
SN12-K1
  IC50: 0.0224 ng/mL (≈ 0.036 nM)
  IC90: 0.287 ng/mL (≈ 0.461 nM)
A-549(ATCC)
  IC90: > 92.4 ng/mL
[2]
  9KB ED50: 6.188e-11 ng/mL
EKV-X
  IC50: 0.115 ng/mL (≈ 0.185 nM)
  IC90: > 92.6 ng/mL
TE-671
  IC50: 0.0256 ng/mL (≈ 0.0411 nM)
  IC90: 2.74 ng/mL (≈ 4.4 nM)
H524
  IC50: 2690 ng/mL (≈ 4320 nM)
  IC90: 7540 ng/mL (≈ 12100 nM)
MALME-3M
  IC50: 2820 ng/mL (≈ 4530 nM)
  IC90: 7670 ng/mL (≈ 12300 nM)
HT29
  IC50: 3.84 ng/mL (≈ 6.16 nM)
  IC90: > 92.4 ng/mL
LOX
  IC50: < 0.926 ng/mL
  IC90: 3760 ng/mL (≈ 6040 nM)
OVCAR-4
  IC50: > 92.4 ng/mL
  IC90: > 92.4 ng/mL
